# Laboratory results from patent publication US20260070917A1, “CYCLIN DEPENDENT KINASE DEGRADERS AND METHODS OF USE THEREOF” (Differentiated Therapeutics Inc, priority 2023, published 2026).
# Tests used:
# [1] = molecular target: T1, CDK2 (Homo sapiens, UniProt P24941); test: HiBit Assay Protocol for CDK2 (HIBIT protein quantification, degradation); type: cell-based; details: HEK293-CDK2-Hibit cells, compound treatment for 6 hours; for DC50: ABS DC50
# T1 construct: host or cells: HEK293-CDK2-Hibit
# Method: HiBit Assay Protocol for CDK2
# • 1. The culture medium for HEK293-CDK2-Hibit cells was prepared using DMEM with 10% FBS. • 2. Cells were cultivated in T-75 flasks in a cell culture incubator set at 37° C., 5% CO2, 95% relative humidity. Cells were allowed to reach 80-90% confluence before detaching and splitting. • 3. Cultivated cells were rinsed in T-75 flasks with 5 mL PBS. Aspirate off Added was 1.5 mL trypsin, and the cells were incubated at 37° C. for approximately 5 minutes or until the cells detached and floated. • 4. Trypsin was inactivated by adding excess serum containing medium. • 5. Cells were harvested from flask into cell culture medium and then the cell number was counted. HEK293-CDK2-Hibit cells were seeded into 384-well plate (cell density: 1.6×10^5 cells/well/50 uL medium) in DMEM medium according to the plate map below and incubated overnight at 37° C. and 5% CO2. • Note: Cell Cultured Medium: 90% DMEM+10% FBS+1% Penicillin-Streptomycin Liquid
# (§1) • 1. Test compounds were dissolved at 10 mM DMS stock solution. 45 uL of stock solution was transferred to a 384 pp-plate. A 3-fold, 10-point dilution was performed via transferring 15 uL compound into 30 uL DMSO by using TECAN liquid handler. • 2. The plates were spinned at room temperature at 1,000 RPM for 1 minute. • 3. 50 nL of diluted compound was transferred from compound source plate into the cell plate by Echo. • 4. After compound treatment for 6 hours, the plate was removed from incubators and equilibrated at room temperature for 15 minutes. The HiBit reagent was prepared, consisting of the following ratios: 10 mL of Nano-Glo®-HiBiT Lytic Buffer, 200 μL of Nano-Glo®-HiBiT Lytic Substrate and 100 uL of LgBiT Protein, mixed thoroughly. 20 μL of HiBit reagent was added into each well and the plates were spinned at room temperature at 1,000 RPM for 1 minute to be detected. Then the plates were shaken at 600 RPM at room temperature for 20 minutes, and read by EnVision. • 5. The inhibition activity was calculated following the formula below:
# (§2) [formula] • Note: Where HC is obtained from cells treated with […] only; LC is obtained from culture medium only. • 6. ABS DC50 was calculated by fitting the Curve using Xlfit (v5.3.1.3), equation 201: […]
# [2] = molecular target: T2, CCNE1 (Homo sapiens, UniProt P24864); test: HiBit Assay Protocol for CCNE1 (HIBIT protein quantification, degradation); type: cell-based; details: HEK293-CCNE1-Hibit cells, compound treatment for 6 hours
# T2 construct: host or cells: HEK293-CCNE1-Hibit
# T2 sequence (P24864 whole entry): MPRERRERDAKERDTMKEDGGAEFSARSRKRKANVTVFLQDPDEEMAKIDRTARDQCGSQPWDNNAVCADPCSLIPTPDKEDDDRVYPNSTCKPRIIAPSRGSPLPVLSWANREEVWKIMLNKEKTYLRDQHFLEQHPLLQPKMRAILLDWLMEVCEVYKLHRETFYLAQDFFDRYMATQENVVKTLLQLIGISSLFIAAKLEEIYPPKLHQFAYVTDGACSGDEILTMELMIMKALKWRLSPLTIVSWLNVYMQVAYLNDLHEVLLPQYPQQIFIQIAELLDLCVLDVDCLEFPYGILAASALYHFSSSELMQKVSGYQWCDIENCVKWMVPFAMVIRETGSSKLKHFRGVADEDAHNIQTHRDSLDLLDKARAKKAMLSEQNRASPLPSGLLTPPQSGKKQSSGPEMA
# Method: HiBit Assay Protocol for CCNE1
# • 1. The culture medium for HEK293-CCNE1-Hibit cell was prepared using EMEM with […]. • 2. Cells were cultivated in T-75 flasks in a cell culture incubator set at 37° C., 5% CO2, 95% relative humidity. Cells were allowed to reach 80-90% confluence before detaching and splitting. • 3. Cultivated cells were rinsed in T-75 flasks with 5 mL PBS. Aspirate off Added was 1.5 mL trypsin, and the cells were incubated at 37° C. for approximately 5 minutes or until the cells detached and floated. • 4. Trypsin was inactivated by adding excess serum containing medium. • 5. Cells were harvested from flask into cell culture medium and then the cell number was counted. HEK293-CCNE1-Hibit cell were seeded into 384-well plate (cell density: 1.6×10^5 cells/well/50 uL medium) in EMEM medium according to the plate map below and incubated overnight at 37° C. and […]. • Note: Cell Cultured Medium: 90% EMEM+10% FBS+1% Penicillin-Streptomycin Liquid
# as §1, with “mM DMSO” for “mM DMS”, “45 μL” for “45 uL”, “100 μL” for “100 uL”, “Protein, mix” for “Protein, mixed”
# as §2
CDK2 HIBIT Protein Quantification Maximum [1] [%],DC50 [1] [nM],CCNE1 HIBIT Protein Quantification Maximum [2] [%],Compound
70.2,16,30.9,"CC1CCCC1N1C(=O)C2(CC2)c2cnc(NC3CCN(S(=O)(=O)C4CCN(C(=O)CCCCCc5cccc6c5n(C)c(=O)n6C5CCC(=O)NC5=O)C4)CC3)nc21 (centres unmarked) [Compound 1, 3-{3-Methyl-4-[6-(3-{4-[7′-(2-methylcyclopentyl)-6′-oxospiro[cyclopropane-1,5′-pyrrolo[2,3-d]pyrimidin]-2′-ylamino]piperidin-1-ylsulfonyl}pyrrolidin-1-yl)-6-oxohexyl]-2-oxo-1,3-benzodiazol-1-yl}piperidine-2,6-dione]"
45.7,–,41.1,"CC1CCCC1N1C(=O)C2(CC2)c2cnc(NC3CCN(S(=O)(=O)N4CCC5(CCCN5C(=O)CCCCCCCc5cccc6c5n(C)c(=O)n6C5CCC(=O)NC5=O)C4)CC3)nc21 (centres unmarked) [Compound 2, 3-{3-Methyl-4-[8-(7-{4-[7′-(2-methylcyclopentyl)-6′-oxospiro[cyclopropane-1,5′-pyrrolo[2,3-d]pyrimidin]-2′-ylamino]piperidin-1-ylsulfonyl}-1,7-diazaspiro[4.4]nonan-1-yl)-8-oxooctyl]-2-oxo-1,3-benzodiazol-1-yl}piperidine-2,6-dione]"
34.6,–,19.4,CC1CCCC1N1C(=O)C2(CC2)c2cnc(NC3CCN(S(=O)(=O)N4CC5(CCCN(C(=O)CCCCCCCc6cccc7c6n(C)c(=O)n7C6CCC(=O)NC6=O)C5)C4)CC3)nc21 (centres unmarked) [Compound 3]
56.5,6.7,21.2,CC1CCCC1N1C(=O)C2(CC2)c2cnc(NC3CCN(S(=O)(=O)N4CC5(CCN(C(=O)CCCCCCCc6cccc7c6n(C)c(=O)n7C6CCC(=O)NC6=O)CC5)C4)CC3)nc21 (centres unmarked) [Compound 4]
24.9,–,21.9,CC1CCCC1N1C(=O)C2(CC2)c2cnc(NC3CCN(S(=O)(=O)N4CC5CN(C(=O)CCCCCCCc6cccc7c6n(C)c(=O)n7C6CCC(=O)NC6=O)CC54)CC3)nc21 (centres unmarked) [Compound 5]
66.2,14.6,30,CC1CCCC1N1C(=O)C2(CC2)c2cnc(NC3CCN(S(=O)(=O)C4CCN(C(=O)CCCCCCCc5cccc6c5n(C)c(=O)n6C5CCC(=O)NC5=O)C4)CC3)nc21 (centres unmarked) [Compound 6]
37.9,–,21.2,CC1CCCC1N1C(=O)C2(CC2)c2cnc(NC3CCN(S(=O)(=O)N4CCN(C(=O)CCCc5ccc6c(c5)n(C)c(=O)n6C5CCC(=O)NC5=O)CC4)CC3)nc21 (centres unmarked) [Compound 7]
59.2,8.8,24.7,CC1CCCC1N1C(=O)C2(CC2)c2cnc(NC3CCN(S(=O)(=O)N4CCN(C(=O)CCCCc5cccc6c5n(C)c(=O)n6C5CCC(=O)NC5=O)CC4)CC3)nc21 (centres unmarked) [Compound 8]
48.4,–,–,CC1CCCC1N1C(=O)C2(CC2)c2cnc(NC3CCN(S(=O)(=O)N4CC5(CCN(C(=O)CCCCc6cccc7c6n(C)c(=O)n7C6CCC(=O)NC6=O)CC5)C4)CC3)nc21 (centres unmarked) [Compound 9]
38.9,–,–,CC1CCCC1N1C(=O)C2(CC2)c2cnc(NC3CCN(S(=O)(=O)N4CCC5(CCN(C(=O)CCCCc6cccc7c6n(C)c(=O)n7C6CCC(=O)NC6=O)C5)C4)CC3)nc21 (centres unmarked) [Compound 10]
49.5,–,23.6,CC1CCCC1N1C(=O)C2(CC2)c2cnc(NC3CCN(S(=O)(=O)C4CCN(C(=O)CCCCc5cccc6c5n(C)c(=O)n6C5CCC(=O)NC5=O)C4)CC3)nc21 (centres unmarked) [Compound 11]
34.6,–,16.9,CC1CCCC1N1C(=O)C2(CC2)c2cnc(NC3CCN(S(=O)(=O)N4CCN(C(=O)CCCCc5ccc6c(c5)n(C)c(=O)n6C5CCC(=O)NC5=O)CC4)CC3)nc21 (centres unmarked) [Compound 12]
82,3.58,47,"Cn1nc(N2CCC(=O)NC2=O)c2ccc(C3CCN(Cc4cccc(S(=O)(=O)N5CCC(Nc6ncc7c(n6)N([C@@H]6CCC[C@@H](O)C6)C(=O)C76CCC6)CC5)c4)CC3)cc21 [Compound 174, 1-[6-(1-{[3-(4-{7′-[(1R,3R)-3-Hydroxycyclohexyl]-6′-oxospiro[cyclobutane-1,5′-pyrrolo[2,3-d]pyrimidin]-2′-ylamino}piperidin-1-ylsulfonyl)phenyl]methyl}piperidin-4-yl)-1-methylindazol-3-yl]-1,3-diazinane-2,4-dione]"
88,2.62,47,CC1CN(C(C)c2cccc(S(=O)(=O)N3CC[C@H](Nc4ncc5c(n4)N([C@@H]4CCC[C@@H](O)C4)C(=O)C54CC4)[C@H](F)C3)c2)CCC1c1ccc2c(N3CCC(=O)NC3=O)nn(C)c2c1 (some centres unmarked) [Compound 189]
70,13.6,27,CC(C)C1CC(c2ccc3c(N4CCC(=O)NC4=O)nn(C)c3c2)CCN1C(C)c1cccc(S(=O)(=O)N2CC[C@H](Nc3ncc4c(n3)N([C@@H]3CCC[C@@H](O)C3)C(=O)C43CC3)[C@H](F)C2)c1 (some centres unmarked) [Compound 190]
85,10.3,48,C[C@H](c1cccc(S(=O)(=O)N2CC[C@H](Nc3ncc4c(n3)N([C@@H]3CCC[C@@H](O)C3)C(=O)C43CC3)[C@H](F)C2)c1)N1CCN(c2ccc3c(N4CCC(=O)NC4=O)nn(C)c3c2)C[C@@H]1C [Compound 193]
94,3.86,42,C[C@H]1CN(c2ccc3c(N4CCC(=O)NC4=O)nn(C)c3c2)CCN1[C@@H](C)c1cccc(S(=O)(=O)N2CC[C@H](Nc3ncc4c(n3)N([C@@H]3CCC[C@@H](O)C3)C(=O)C43CC3)[C@H](F)C2)c1 [Compound 194]
91,4.7,47,C[C@H](c1cc(S(=O)(=O)N2CC[C@H](Nc3ncc4c(n3)N([C@@H]3CCC[C@@H](O)C3)C(=O)C43CC3)[C@H](F)C2)ccc1F)N1CCN(c2ccc3c(N4CCC(=O)NC4=O)nn(C)c3c2)CC1 [Compound 210]

Compound,CDK2 HIBIT Protein Quantification Maximum [1] [%],DC50 [1] [nM],CCNE1 HIBIT Protein Quantification Maximum [2] [%]
"CC1CCCC1N1C(=O)C2(CC2)c2cnc(NC3CCN(S(=O)(=O)N4CCC(CN5CCC(c6cccc7c6n(C)c(=O)n7C6CCC(=O)NC6=O)CC5)CC4)CC3)nc21 (centres unmarked) [Compound 14, 3-(3-Methyl-4-{1-[(1-{4-[7′-(2-methylcyclopentyl)-6′-oxospiro[cyclopropane-1,5′-pyrrolo[2,3-d]pyrimidin]-2′-ylamino]piperidin-1-ylsulfonyl}piperidin-4-yl)methyl]piperidin-4-yl}-2-oxo-1,3-benzodiazol-1-yl)piperidine-2,6-dione]",57.4,4.56,37.7
